The values below come from patent publication US10508077B2 (FORMA Therapeutics, Inc., priority 2015, dated 2019).

For experiment [1], the target named is T1, Full length human recombinant HDAC8 protein (Homo sapiens, UniProt Q9BY41).
T1 construct: Full length human recombinant HDAC8 protein was expressed in baculoviral system; made in house
T1 sequence (Q9BY41 1-377): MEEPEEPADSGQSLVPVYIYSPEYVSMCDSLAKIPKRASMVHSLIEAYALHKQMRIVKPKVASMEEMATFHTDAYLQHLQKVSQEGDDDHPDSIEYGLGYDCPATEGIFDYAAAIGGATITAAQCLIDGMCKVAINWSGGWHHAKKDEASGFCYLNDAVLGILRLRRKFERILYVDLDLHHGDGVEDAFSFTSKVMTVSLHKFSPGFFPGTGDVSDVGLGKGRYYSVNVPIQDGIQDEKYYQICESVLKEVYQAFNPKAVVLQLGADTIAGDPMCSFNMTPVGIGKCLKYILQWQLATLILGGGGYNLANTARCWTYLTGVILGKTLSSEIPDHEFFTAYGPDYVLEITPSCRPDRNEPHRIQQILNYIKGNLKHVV
The experiment is described as follows: In vitro histone deacetylase assay: enzymatic HDAC8 assay, electrophoretic mobility shift. The note with it: substrate RHKK(Ac)-NH2, 1 nM enzyme, compounds listed under IC50 range headings. The class given is biochemical. The method in brief:
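Baculovirus-expressed full-length human HDAC8 (1 nM) deacetylated 2 µM fluorescent RHKK(Ac)-NH2 peptide in pH 7.5 HEPES, 1% DMSO, at 25 °C, with 12 compound concentrations at 3× spacing. SDS-quenched; product and substrate resolved by microfluidic electrophoresis, P/(S+P) converted to percent inhibition, and IC50 obtained by 4-parameter fit.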
A general note: A gel shift assay detects complexes by their altered migration in electrophoresis.

Experiment [2] deals with T2, Recombinant N-terminal GST tag full-length human HDAC8 (Homo sapiens, UniProt Q9BY41).
T2 construct: Recombinant N-terminal GST tag full-length human HDAC8; purchased SignalChem H90-30G-1000; host or cells: Sf9 insect cells (baculovirus)
T2 sequence (Q9BY41 1-377): T1 sequence (Q9BY41 1-377)
The experiment is described as follows: HDAC8 probe binding assay, time resolved fluorescence (TRF). The note with it: fluorescein labeled pan-HDAC inhibitor probe, 16 hours incubation, compounds listed under IC50 range headings. The method, then: The HDAC8 probe binding assay was performed using a time resolved fluorescence (TRF) assay format. Recombinant N-terminal GST tag full-length human HDAC8 was expressed and purified from baculovirus in Sf9 insect cells (SignalChem, #H90-30G-1000), Each assay was performed in 1536 black well microplates (Corning, #3936) in a final volume of 4 μL in assay buffer containing 50 mM HEPES (pH 7.5), 50 mM KCl, 50 mM NaCl, 0.5 mM GSH (L-Glutathione reduced, Sigma #G4251), 0.03% BGG (0.22 μM filtered, Sigma, #G7516-25G), and 0.01% Triton X-100 (Sigma, #T9284-10L). 20 nL of 10-point, 3-fold serial dilution in DMSO was pre-dispensed into respective wells of 1536 assay plates for a final test concentration range of 25 μM to 1.3 nM respectively. The final concentration in the assay of HDAC8 and probe (a fluorescein labeled pan-HDAC inhibitor) was 2.5 nM and 1.5 nM respectively. 2 μL of 2× probe and 2× anti-GST Terbium (Cisbio, #61GSTXLB) was added to assay plates followed by 2 μL of 2× HDAC8. Plates were incubated for 16 hours at room temperature before time resolved fluorescence was read on the Envision (Excitation at 340 nm, and Emission at 485 nm and 535 nm, Perkin Elmer).
Data from HDAC8 Assays were reported as percent inhibition (inh) compared with control wells based on the following equation: % inh=1−((FLU−AveLow)/(AveHigh−AveLow)) where FLU=measured time resolved fluorescence. AveLow=average time resolved fluorescence of no enzyme control (n=32). AveHigh=average time resolved fluorescence of DMSO control (n=32). IC50 values were determined by curve fitting of the standard 4 parameter logistic fitting algorithm included in the Activity Base software package: IDBS XE Designer Model205. Data is fitted using the Levenburg Marquardt algorithm.

Structures are written as SMILES. Structures can show the parent of a compound that is named as a salt.

In general, IC50 refers to the concentration that gives 50% inhibition. For the compound `CCn1c(C(=O)Nc2ccccc2/C=C/C(=O)NO)cc2ccccc21` [Example I-79, (E)-1-ethyl-N-(2-(3-(hydroxyamino)-3-oxoprop-1-en-1-yl)phenyl)-1H-indole-2-carboxamide], the IC50 in experiment [1] was < 1000 nM; in experiment [2], ≤ 1000 nM.

On to `O=C(/C=C/c1ccccc1C(=O)N1CCN(c2cnccn2)CC1)NO` [II-22, (E)-N-hydroxy-3-(2-(4-(pyrazin-2-yl)piperazine-1-carbonyl)phenyl)acrylamide], for which the half-maximal inhibitory concentration (IC50) in experiment [1] was < 1000 nM; in experiment [2], ≤ 1000 nM.

For `O=C(/C=C/c1ccccc1N1CCN(C(=O)c2ccc3[nH]ccc3c2)CC1)NO` [Example I-208, (E)-3-(2-(4-(1H-indole-5-carbonyl)piperazin-1-yl)phenyl)-N-hydroxyacrylamide], the IC50 in experiment [1] was < 1000 nM; in experiment [2] it was ≤ 1000 nM.

For the compound `O=C(/C=C/c1ccccc1N1CCN(Cc2nccs2)CC1)NO` [Example I-170, (E)-N-hydroxy-3-(2-(4-(thiazol-2-ylmethyl)piperazin-1-yl)phenyl)acrylamide], the IC50 in experiment [1] is < 1000 nM; in experiment [2] it was ≤ 1000 nM.

`Cc1oc(C(C)(C)C)cc1C(=O)Nc1ccccc1/C=C/C(=O)NO` [Example I-265, (E)-5-(tert-butyl)-N-(2-(3-(hydroxyamino)-3-oxoprop-1-en-1-yl)phenyl)-2-methylfuran-3-carboxamide]: the results for the IC50 in experiment [1] and in experiment [2] were < 1000 nM and ≤ 1000 nM, respectively.

As for `O=C(/C=C/c1ccccc1NCc1cccc(CN2CCOCC2)c1)NO` [Example I-101, (E)-N-hydroxy-3-(2-((3-(morpholinomethyl)benzyl)amino)phenyl)acrylamide], the IC50 in experiment [1] is < 1000 nM; in experiment [2] it was ≤ 1000 nM.

For `CC(=O)N1CCCC12CCN(c1ccccc1/C=C/C(=O)NO)C2` (centres unmarked) [Example I-545], the IC50 in experiment [1] was < 1000 nM; in experiment [2], ≤ 1000 nM.

`O=C(/C=C/c1cc(OC(F)(F)F)ccc1NC(=O)c1ccccc1Oc1ccc(F)cc1)NO` [Example I-557, 2-(4-fluorophenoxy)-N-{2-[(1E)-2-(hydroxycarbamoyl)eth-1-en-1-yl]-4-(trifluoromethoxy)phenyl}benzamide]: the IC50 was < 1000 nM in experiment [1] and ≤ 1000 nM in experiment [2].

Take `CC(=O)Nc1cccc(CNc2ccccc2/C=C/C(=O)NO)c1` [Example I-43, (E)-3-(2-((3-acetamidobenzyl)amino)phenyl)-N-hydroxyacrylamide]: the IC50 in experiment [1] was < 1000 nM; in experiment [2], 1000 to 100000 nM.

Turning to `O=C(/C=C/c1ccccc1NC(=O)c1ccc(C(F)(F)F)cc1)NO` [Example I-61, (E)-N-(2-(3-(hydroxyamino)-3-oxoprop-1-en-1-yl)phenyl)-4-(trifluoromethyl)benzamide], the results for the IC50 in experiment [1] and in experiment [2] were < 1000 nM and ≤ 1000 nM, respectively.

As for `COc1ccc(CN2CCN(c3ccccc3/C=C/C(=O)NO)C(=O)C2)cc1` [Example I-293, (E)-N-hydroxy-3-(2-(4-(4-methoxybenzyl)-2-oxopiperazin-1-yl)phenyl)acrylamide], the IC50 in experiment [1] was < 1000 nM; in experiment [2] it was ≤ 1000 nM.

Take `O=C(NO)/C(F)=C/c1ccccc1NC(=O)c1ccccc1Oc1ccccc1` [Example I-325, (Z)—N-(2-(2-fluoro-3-(hydroxyamino)-3-oxoprop-1-enyl)phenyl)-2-phenoxybenzamide hydrochloride]: the IC50 in experiment [1] was < 1000 nM; in experiment [2], ≤ 1000 nM.

As for `O=C(/C=C/c1ccccc1NCc1nccs1)NO` [Example I-91, (E)-N-hydroxy-3-(2-((thiazol-2-ylmethyl)amino)phenyl)acrylamide], the IC50 in experiment [1] was < 1000 nM; in experiment [2], ≤ 1000 nM.

Consider `COc1ccc(NC(=O)N2CCN(c3ccccc3/C=C/C(=O)NO)C(=O)C2)cc1` [Example I-529, (E)-4-(2-(3-(hydroxyamino)-3-oxoprop-1-en-1-yl)phenyl)-N-(4-methoxyphenyl)-3-oxopiperazine-1-carboxamide], for which the IC50 in experiment [1] was < 1000 nM; in experiment [2] it was ≤ 1000 nM.

Turning to `O=C(/C=C/c1ccccc1N1CCN(Cc2cccnc2)CC1)NO` [Example I-179, (E)-N-hydroxy-3-(2-(4-(pyridin-3-ylmethyl)piperazin-1-yl)phenyl)acrylamide], the IC50 in experiment [1] is < 1000 nM; in experiment [2], ≤ 1000 nM.

As to `O=C(/C=C/c1ccccc1NC(=O)c1cnc(N2CCOCC2)s1)NO` [Example I-319, (E)-N-(2-(3-(hydroxyamino)-3-oxoprop-1-en-1-yl)phenyl)-2-morpholinothiazole-5-carboxamide], the IC50 in experiment [1] is < 1000 nM; in experiment [2], ≤ 1000 nM.

`O=C(/C=C/c1ccccc1N1CC[C@@H](c2ccccc2)C1=O)NO` (single isomer, unassigned) [Example I-328]: the IC50 in experiment [1] was < 1000 nM; in experiment [2], ≤ 1000 nM.

Regarding `CC(C)C(=O)Nc1ccccc1/C=C/C(=O)NO` [Example I-69, (E)-N-hydroxy-3-(2-isobutyramidophenyl)acrylamide], the IC50 in experiment [1] is < 1000 nM; in experiment [2] it was ≤ 1000 nM.

In the case of `O=C(/C=C/c1ccccc1NCc1ccccn1)NO` [Example I-89], the IC50 in experiment [1] is < 1000 nM; in experiment [2] it was ≤ 1000 nM.

On to `O=C(/C=C/c1ccccc1N1CCN(C(=O)C2(c3cccnc3)CC2)CC1)NO` [Example I-321, (E)-N-hydroxy-3-(2-(4-(1-(pyridin-3-yl)cyclopropane-1-carbonyl)piperazin-1-yl)phenyl)acrylamide], for which the IC50 in experiment [1] was < 1000 nM; in experiment [2], ≤ 1000 nM.

As for `Cc1onc(-c2ccc(F)cc2)c1C(=O)Nc1ccccc1/C=C/C(=O)NO` [Example I-323, (E)-3-(4-fluorophenyl)-N-(2-(3-(hydroxyamino)-3-oxoprop-1-en-1-yl)phenyl)-5-methylisoxazole-4-carboxamide], the IC50 in experiment [1] was < 1000 nM; in experiment [2], ≤ 1000 nM.

For the compound `O=C(/C=C/c1ccccc1NC(=O)c1cc2ccccc2[nH]1)NO` [Example I-77], the IC50 is < 1000 nM in experiment [1] and ≤ 1000 nM in experiment [2].

Regarding `O=C(/C=C/c1ccccc1NCc1cccc(CCCO)c1)NO` [Example I-48, (E)-N-hydroxy-3-(2-((3-(3-hydroxypropyl)benzyl)amino)phenyl)acrylamide], the IC50 is < 1000 nM in experiment [1] and 1000 to 100000 nM in experiment [2].

With `O=C(/C=C/c1ccccc1NCc1ccccc1)NO` [Example I-40], the IC50 in experiment [1] is < 1000 nM; in experiment [2], ≤ 1000 nM.

As to `Cc1onc(-c2c(Cl)cccc2Cl)c1C(=O)Nc1ccccc1/C=C/C(=O)NO` [Example I-275, (E)-3-(2,6-dichlorophenyl)-N-(2-(3-(hydroxyamino)-3-oxoprop-1-en-1-yl)phenyl)-5-methylisoxazole-4-carboxamide], the IC50 is < 1000 nM in experiment [1] and ≤ 1000 nM in experiment [2].

In the case of `O=C(/C=C/c1ccccc1NC(=O)C1CCC2(CC1)CC2)NO` [Example I-84, (E)-N-(2-(3-(hydroxyamino)-3-oxoprop-1-en-1-yl)phenyl)spiro[2.5]octane-6-carboxamide], the IC50 in experiment [1] was < 1000 nM; in experiment [2] it was ≤ 1000 nM.

As for `O=C(/C=C/c1ccccc1NC(=O)c1cccc(CCCO)c1)NO` [Example I-49, (E)-N-(2-(3-(hydroxyamino)-3-oxoprop-1-en-1-yl)phenyl)-3-(3-hydroxypropyl)benzamide], the IC50 in experiment [1] is < 1000 nM; in experiment [2], ≤ 1000 nM.

As for `O=C(/C=C/c1ccccc1N1CCN(Cc2ccc(N3CCCC3)nc2)CC1)NO` [Example I-182, (E)-N-hydroxy-3-(2-(4-((6-(pyrrolidin-1-yl)pyridin-3-yl)methyl)piperazin-1-yl)phenyl)acrylamide], the half-maximal inhibitory concentration (IC50) in experiment [1] was < 1000 nM; in experiment [2], ≤ 1000 nM.
